Results from PubChem BioAssay (NCI).
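How tested: cells in 96-well plates exposed to compound for 48 hours at five concentrations. TGI marks complete inhibition of growth.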

Key:
Experiment in all cases: DTP human tumour cell line panel, 48 h
MDA-MB-231 breast = tested on: MDA-MB-231 breast
CCRF-CEM leukemia = tested on: CCRF-CEM leukemia
MALME-3M melanoma = tested on: MALME-3M melanoma
T-47D breast = tested on: T-47D breast
SN12C renal = tested on: SN12C renal
RPMI-8226 leukemia = tested on: RPMI-8226 leukemia
SF-539 CNS = tested on: SF-539 CNS
SK-MEL-28 melanoma = tested on: SK-MEL-28 melanoma
OVCAR-5 ovarian = tested on: OVCAR-5 ovarian
UACC-62 melanoma = tested on: UACC-62 melanoma
DU-145 prostate = tested on: DU-145 prostate
HS 578T breast = tested on: HS 578T breast
SNB-75 CNS = tested on: SNB-75 CNS
MOLT-4 leukemia = tested on: MOLT-4 leukemia
HL-60(TB) leukemia = tested on: HL-60(TB) leukemia
K-562 leukemia = tested on: K-562 leukemia
A498 renal = tested on: A498 renal
RXF 393 renal = tested on: RXF 393 renal
HT29 colon = tested on: HT29 colon
OVCAR-3 ovarian = tested on: OVCAR-3 ovarian
U251 CNS = tested on: U251 CNS
NCI-H226 lung = tested on: NCI-H226 lung
EKVX NSCLC = tested on: EKVX NSCLC
CAKI-1 renal = tested on: CAKI-1 renal
NCI-H522 lung = tested on: NCI-H522 lung
MDA-N = tested on: MDA-N
OVCAR-4 ovarian = tested on: OVCAR-4 ovarian
LOX IMVI melanoma = tested on: LOX IMVI melanoma
SK-MEL-5 melanoma = tested on: SK-MEL-5 melanoma
HCT-15 colon = tested on: HCT-15 colon
TK-10 renal = tested on: TK-10 renal
UO-31 renal = tested on: UO-31 renal
SK-OV-3 ovarian = tested on: SK-OV-3 ovarian
SF-295 CNS = tested on: SF-295 CNS
MCF7 breast = tested on: MCF7 breast
PC-3 prostate = tested on: PC-3 prostate
IGROV1 ovarian = tested on: IGROV1 ovarian
SF-268 CNS = tested on: SF-268 CNS
ACHN renal = tested on: ACHN renal
BT-549 breast = tested on: BT-549 breast
SNB-19 CNS = tested on: SNB-19 CNS
MDA-MB-435 = tested on: MDA-MB-435
COLO 205 colon = tested on: COLO 205 colon
SK-MEL-2 melanoma = tested on: SK-MEL-2 melanoma
OVCAR-8 ovarian = tested on: OVCAR-8 ovarian
NCI/ADR-RES ovarian = tested on: NCI/ADR-RES ovarian
HCT-116 colon = tested on: HCT-116 colon
A549 NSCLC = tested on: A549 NSCLC
786-0 renal = tested on: 786-0 renal
M14 melanoma = tested on: M14 melanoma
HOP-62 NSCLC = tested on: HOP-62 NSCLC
HOP-92 NSCLC = tested on: HOP-92 NSCLC
UACC-257 melanoma = tested on: UACC-257 melanoma
NCI-H23 lung = tested on: NCI-H23 lung
SW-620 colon = tested on: SW-620 colon
NCI-H460 lung = tested on: NCI-H460 lung
KM12 colon = tested on: KM12 colon
HCC-2998 colon = tested on: HCC-2998 colon

CN(C)C=Nc1cccc2nsnc12
TGI (MDA-MB-231 breast): > 100 µM | TGI (CCRF-CEM leukemia): > 100 µM | TGI (MALME-3M melanoma): > 100 µM | TGI (T-47D breast): > 100 µM | TGI (SN12C renal): > 100 µM | TGI (RPMI-8226 leukemia): > 100 µM | TGI (SF-539 CNS): > 100 µM | TGI (SK-MEL-28 melanoma): > 100 µM | TGI (OVCAR-5 ovarian): > 100 µM | TGI (UACC-62 melanoma): > 100 µM | TGI (DU-145 prostate): > 100 µM | TGI (HS 578T breast): > 100 µM | TGI (SNB-75 CNS): > 100 µM | TGI (MOLT-4 leukemia): > 100 µM | TGI (HL-60(TB) leukemia): > 100 µM | TGI (K-562 leukemia): > 100 µM | TGI (A498 renal): > 100 µM | TGI (RXF 393 renal): > 100 µM | TGI (HT29 colon): > 100 µM | TGI (OVCAR-3 ovarian): > 100 µM | TGI (U251 CNS): > 100 µM | TGI (NCI-H226 lung): > 100 µM | TGI (EKVX NSCLC): > 100 µM | TGI (CAKI-1 renal): > 100 µM | TGI (NCI-H522 lung): > 100 µM | TGI (MDA-N): > 100 µM | TGI (OVCAR-4 ovarian): > 100 µM | TGI (LOX IMVI melanoma): > 100 µM | TGI (SK-MEL-5 melanoma): > 100 µM | TGI (HCT-15 colon): > 100 µM | TGI (TK-10 renal): > 100 µM | TGI (UO-31 renal): > 100 µM | TGI (SK-OV-3 ovarian): > 100 µM | TGI (SF-295 CNS): > 100 µM | TGI (MCF7 breast): > 100 µM | TGI (PC-3 prostate): > 100 µM | TGI (IGROV1 ovarian): > 100 µM | TGI (SF-268 CNS): > 100 µM | TGI (ACHN renal): > 100 µM | TGI (BT-549 breast): > 100 µM | TGI (SNB-19 CNS): > 100 µM | TGI (MDA-MB-435): > 100 µM | TGI (COLO 205 colon): > 100 µM | TGI (SK-MEL-2 melanoma): > 100 µM | TGI (OVCAR-8 ovarian): > 100 µM | TGI (NCI/ADR-RES ovarian): > 100 µM | TGI (HCT-116 colon): > 100 µM | TGI (A549 NSCLC): > 100 µM | TGI (786-0 renal): > 100 µM | TGI (M14 melanoma): > 100 µM | TGI (HOP-62 NSCLC): > 100 µM | TGI (HOP-92 NSCLC): > 100 µM | TGI (UACC-257 melanoma): > 100 µM | TGI (NCI-H23 lung): > 100 µM

C/C1=C/C(C)CC(C)OC(=O)C(C)NC(=O)C(Cc2ccc(O)c(I)c2)N(C)C(=O)CNC(=O)C(C)C1 (stereo not drawn)
TGI (MDA-MB-231 breast): 1.99 µM | TGI (CCRF-CEM leukemia): < 0.01 µM | TGI (MALME-3M melanoma): 6.22 µM | TGI (T-47D breast): > 100 µM | TGI (SN12C renal): > 100 µM | TGI (RPMI-8226 leukemia): 0.757 µM | TGI (SF-539 CNS): 4.94 µM | TGI (OVCAR-5 ovarian): > 100 µM | TGI (UACC-62 melanoma): > 20.9 µM | TGI (DU-145 prostate): > 100 µM | TGI (HS 578T breast): 0.723 µM | TGI (SNB-75 CNS): < 0.0141 µM | TGI (MOLT-4 leukemia): > 52.7 µM | TGI (HL-60(TB) leukemia): < 0.01 µM | TGI (A498 renal): < 0.0134 µM | TGI (RXF 393 renal): < 0.01 µM | TGI (HT29 colon): > 100 µM | TGI (OVCAR-3 ovarian): < 0.01 µM | TGI (U251 CNS): 0.0707 µM | TGI (EKVX NSCLC): > 21.9 µM | TGI (CAKI-1 renal): < 0.01 µM | TGI (MDA-N): > 100 µM | TGI (LOX IMVI melanoma): < 0.01 µM | TGI (SW-620 colon): > 100 µM | TGI (SK-MEL-5 melanoma): 13.2 µM | TGI (HCT-15 colon): 11.2 µM | TGI (NCI-H460 lung): > 59.7 µM | TGI (UO-31 renal): 0.035 µM | TGI (SK-OV-3 ovarian): 2.16 µM | TGI (SF-295 CNS): 1.73 µM | TGI (MCF7 breast): > 100 µM | TGI (KM12 colon): > 100 µM | TGI (IGROV1 ovarian): 0.0236 µM | TGI (SF-268 CNS): 1.35 µM | TGI (BT-549 breast): 0.322 µM | TGI (SNB-19 CNS): > 100 µM | TGI (MDA-MB-435): 16.6 µM | TGI (COLO 205 colon): > 100 µM | TGI (SK-MEL-2 melanoma): 10.2 µM | TGI (OVCAR-8 ovarian): > 100 µM | TGI (NCI/ADR-RES ovarian): > 77.3 µM | TGI (HCT-116 colon): > 100 µM | TGI (A549 NSCLC): > 100 µM | TGI (M14 melanoma): > 100 µM | TGI (HOP-62 NSCLC): < 0.01 µM | TGI (HOP-92 NSCLC): 0.0654 µM | TGI (UACC-257 melanoma): 5.97 µM | TGI (NCI-H23 lung): > 100 µM | TGI (HCC-2998 colon): 13.2 µM
